Values of other authors, collected in patent US20160082021A1, “PHARMACEUTICAL COMPOSITION OF DOXYCYCLINE WITH REDUCED FOOD EFFECT” (SUN PHARMACEUTICAL INDUSTRIES LIMITED, priority 2014, published 2016).

Conditions: oral versus intravenous doses

absorption for oral administration: 73-77%
SMILES: C[C@H]1c2cccc(O)c2C(=O)C2=C(O)[C@]3(O)C(=O)C(C(N)=O)=C(O)[C@@H](N(C)C)[C@@H]3[C@@H](O)[C@@H]21 [doxycycline]
